The values that follow are results of earlier work, collected in US20230013403A1, “COMPOSITIONS COMPRISING HUMAN MILK OLIGOSACCHARIDES FOR USE IN A SUBJECT TO SUPPORT LANGUAGE DEVELOPMENT” (SOCIETE DES PRODUITS NESTLE S.A., priority 2019, published 2023).

In this series the test system is rodents. To be noted: chronic oral administration.

For 2′ fucosyllactose [2′FL], the “learning and working memory functions of treated animals” value is recorded as “significantly better”.
